Where “and” joins values, the source holds several entries; their conditions need not be identical. Identical values can stand only once. Inconclusive results and toxic doses are left out. Square brackets hold non-standard residues; d marks the D form. Peptide text beside a SMILES is read from it. * marks the point of attachment. ξ: configuration not given here. Cbz = O=C(OCc1ccccc1)*; ξNle = CCCCC(N)C(=O)O
Tested on: P388 leukemia ip, CD2F1 mice, survival T/C
Test: NCI In Vivo Anticancer Drug Screen. Data for tumor model P388 Leukemia (intraperitoneal) in CD2F1 (CDF1) mice
Settings: endpoint: median survival time, higher = longer survival
Method in brief: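 Mice carrying the transplanted tumor received test compound or vehicle. Survival was recorded in each group, and the value is the treated-group measurement divided by that of the vehicle-treated control group.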

[1] = dose: 50.0 mg/kg/injection, schedule: Q01DX005 (ip), vehicle: saline with Tween-80
[2] = dose: 100.0 mg/kg/injection, schedule: Q01DX005 (ip), vehicle: saline with Tween-80
[3] = dose: 200.0 mg/kg/injection, schedule: Q01DX005 (ip), vehicle: saline with Tween-80
[4] = dose: 50.0 mg/kg/injection, schedule: Q01DX005 (ip), vehicle: Klucel (hydroxypropylcellulose) (HPC)
[5] = dose: 100.0 mg/kg/injection, schedule: Q01DX005 (ip), vehicle: Klucel (hydroxypropylcellulose) (HPC)

With `COc1ccc(C[C@H](N)C(=O)NC2C(CO)OC(n3cnc4c(N(C)C)ncnc43)C2O)cc1` (some centres undefined) the T/C (dose: 4.0 mg/kg/injection, schedule: Q03HX024 (ip), vehicle: saline) was 115 % of control, the T/C (dose: 8.0 mg/kg/injection, schedule: Q01DX005 (ip), vehicle: saline) was 112 % of control and the T/C (dose: 8.0 mg/kg/injection, schedule: Q01DX009 (ip), vehicle: saline) was 107 % of control. For the same molecule, the T/C (dose: 16.0 mg/kg/injection, schedule: Q01DX005 (ip), vehicle: saline) was 106 % of control, the T/C (dose: 16.0 mg/kg/injection, schedule: Q01DX009 (ip), vehicle: saline) was 100 % of control and the T/C (dose: 16.0 mg/kg/injection, schedule: Q03HX024 (ip), vehicle: saline) was 92 % of control. The T/C (dose: 20.0 mg/kg/injection, schedule: Q01DX009 (ip), vehicle: water) was 92 % of control, the T/C (dose: 22.0 mg/kg/injection, schedule: Q01DX009 (ip), vehicle: saline with Tween-80) was 120 % of control and the T/C (dose: 32.0 mg/kg/injection, schedule: Q01DX005 (ip), vehicle: saline) was 106 % of control. The T/C (dose: 32.0 mg/kg/injection, schedule: Q01DX009 (ip), vehicle: saline) was 109 % of control, the T/C (dose: 32.0 mg/kg/injection, schedule: Q04DX003 (ip), vehicle: saline) was 107 % of control and the T/C (dose: 33.0 mg/kg/injection, schedule: Q01DX009 (ip), vehicle: saline with Tween-80) was 122 % of control. The T/C (dose: 40.0 mg/kg/injection, schedule: Q01DX009 (ip), vehicle: water) was 92 % of control, the T/C (dose: 60.0 mg/kg/injection, schedule: Q01DX009 (ip), vehicle: water) was 90 % of control and the T/C (dose: 64.0 mg/kg/injection, schedule: Q01DX001 (ip), vehicle: saline) was 101 % of control and 92 % of control. For the same molecule, the T/C (dose: 64.0 mg/kg/injection, schedule: Q01DX005 (ip), vehicle: saline) was 114 % of control, the T/C (dose: 64.0 mg/kg/injection, schedule: Q01DX009 (ip), vehicle: saline) was 109 % of control and the T/C (dose: 64.0 mg/kg/injection, schedule: Q04DX003 (ip), vehicle: saline) was 111 % of control. For the same molecule, the T/C (dose: 80.0 mg/kg/injection, schedule: Q01DX009 (ip), vehicle: water) was 92 % of control, the T/C (dose: 100.0 mg/kg/injection, schedule: Q01DX009 (ip), vehicle: water) was 95 % of control and the T/C (dose: 100.0 mg/kg/injection, schedule: Q04DX003 (ip), vehicle: saline with Tween-80) was 104 % of control. The T/C (dose: 128.0 mg/kg/injection, schedule: Q01DX001 (ip), vehicle: saline) was 118 % of control and 97 % of control, the T/C (dose: 128.0 mg/kg/injection, schedule: Q01DX005 (ip), vehicle: saline) was 124 % of control and the T/C (dose: 128.0 mg/kg/injection, schedule: Q01DX009 (ip), vehicle: saline) was 118 % of control. For the same molecule, the T/C (dose: 128.0 mg/kg/injection, schedule: Q04DX003 (ip), vehicle: saline) was 100 % of control, the T/C (dose: 150.0 mg/kg/injection, schedule: Q01DX009 (ip), vehicle: saline sonified) was 150 % of control and the T/C (dose: 200.0 mg/kg/injection, schedule: Q04DX003 (ip), vehicle: saline with Tween-80) was 95 % of control. For the same molecule, the T/C (dose: 256.0 mg/kg/injection, schedule: Q01DX001 (ip), vehicle: saline) was 111 % of control, the T/C (dose: 256.0 mg/kg/injection, schedule: Q04DX003 (ip), vehicle: saline) was 90 % of control and the T/C (dose: 400.0 mg/kg/injection, schedule: Q04DX003 (ip), vehicle: saline with Tween-80) was 95 % of control.

In the case of `COC(CC[S+](C)C)C(=O)O` (centres undefined), the T/C (dose: 32.0 mg/kg/injection, schedule: Q01DX005 (ip), vehicle: water) is reported as 105 % of control, the T/C (dose: 64.0 mg/kg/injection, schedule: Q01DX005 (ip), vehicle: water) is reported as 97 % of control and the T/C (dose: 128.0 mg/kg/injection, schedule: Q01DX005 (ip), vehicle: water) is reported as 102 % of control. For the same molecule, the T/C (dose: 256.0 mg/kg/injection, schedule: Q01DX005 (ip), vehicle: water) was 101 % of control.

`CCCCN=C(N)N/N=C/c1c2ccccc2c(C)c2ccccc12` was tested, and the T/C (dose: 12.5 mg/kg/injection, schedule: Q04DX002 (ip), vehicle: saline with Tween-80) was 104 % of control, the T/C (dose: 25.0 mg/kg/injection, schedule: Q04DX002 (ip), vehicle: saline with Tween-80) was 104 % of control and the T/C (dose: 50.0 mg/kg/injection, schedule: Q04DX002 (ip), vehicle: saline with Tween-80) was 104 % of control.

`O=C1CSc2nc3ccc(Cl)cc3c(=O)n21` was tested, and the T/C [1] was 93 % of control, the T/C [2] was 101 % of control and the T/C [3] was 104 % of control.

For `C=C1CCN(c2ccc([N+](=O)[O-])cc2)C1=O`, the T/C (dose: 4.0 mg/kg/injection, schedule: Q01DX009 (ip), vehicle: saline + alcohol) was 94 % of control, the T/C (dose: 8.0 mg/kg/injection, schedule: Q01DX009 (ip), vehicle: saline + alcohol) was 101 % of control and the T/C (dose: 16.0 mg/kg/injection, schedule: Q01DX009 (ip), vehicle: saline + alcohol) was 102 % of control. The T/C (dose: 32.0 mg/kg/injection, schedule: Q01DX009 (ip), vehicle: saline + alcohol) was 96 % of control and the T/C (dose: 64.0 mg/kg/injection, schedule: Q01DX009 (ip), vehicle: saline + alcohol) was 88 % of control.

In the case of `CCOC1(OCC)Oc2c(c3ccccc3c3ccccc23)/C1=C1\c2c(c3ccccc3c3ccccc23)OC1(OCC)OCC`, the T/C [1] is reported as 94 % of control and the T/C [2] is reported as 92 % of control.

In the case of `Nc1ncnc2c1C=C(B(O)O)B(O)N2`, the T/C (dose: 6.25 mg/kg/injection, schedule: Q01DX009 (ip), vehicle: Klucel (hydroxypropylcellulose) (HPC)) is reported as 97 % of control, the T/C (dose: 12.5 mg/kg/injection, schedule: Q01DX009 (ip), vehicle: Klucel (hydroxypropylcellulose) (HPC)) is reported as 99 % of control and the T/C (dose: 25.0 mg/kg/injection, schedule: Q01DX009 (ip), vehicle: Klucel (hydroxypropylcellulose) (HPC)) is reported as 104 % of control.

`CC1=Nc2nnnn2N=C(C)C1` was tested, and the T/C (dose: 25.0 mg/kg/injection, schedule: Q01DX005 (ip), vehicle: saline) was 104 % of control, the T/C (dose: 50.0 mg/kg/injection, schedule: Q01DX005 (ip), vehicle: saline) was 92 % of control and the T/C (dose: 100.0 mg/kg/injection, schedule: Q01DX005 (ip), vehicle: saline) was 95 % of control.

`CNC1C(=O)C(C)C(O)(C(CC(C)C(O)/C=C/C=C/CNC(=O)C(C)(C)C(O)\C(C)=C/C=C\C=C\Cc2cnc(C)o2)OC)C12C(=O)OC2COC` (centres undefined) (tested in a mixture with another compound) was tested, and the T/C (dose: 1.0 mg/kg/injection, schedule: Q01DX005 (ip), vehicle: DMSO) was 104 % of control and the T/C (dose: 2.0 mg/kg/injection, schedule: Q01DX005 (ip), vehicle: DMSO) was 93 % of control.

`COc1ccc(N=Nc2c(C)nn(C(N)=S)c2C)cc1` was tested, and the T/C (dose: 100.0 mg/kg/injection, schedule: Q04DX002 (ip), vehicle: Klucel (hydroxypropylcellulose) (HPC)) was 93 % of control, the T/C (dose: 200.0 mg/kg/injection, schedule: Q04DX002 (ip), vehicle: Klucel (hydroxypropylcellulose) (HPC)) was 92 % of control and the T/C (dose: 400.0 mg/kg/injection, schedule: Q04DX002 (ip), vehicle: Klucel (hydroxypropylcellulose) (HPC)) was 94 % of control.

With `O=C(O)CNc1ccccc1Br` the T/C [4] was 105 % of control, the T/C [5] was 97 % of control and the T/C (dose: 200.0 mg/kg/injection, schedule: Q01DX005 (ip), vehicle: Klucel (hydroxypropylcellulose) (HPC)) was 96 % of control.

`CCCNc1nc(C)nc2[nH]cc(C)c12` was tested, and the T/C [4] was 100 % of control and the T/C [5] was 102 % of control.

With `O=c1c2c([nH]n1-c1ccccc1)-c1ccccc1CS2` the T/C (dose: 25.0 mg/kg/injection, schedule: Q01DX009 (ip), vehicle: saline with Tween-80) was 105 % of control, the T/C (dose: 50.0 mg/kg/injection, schedule: Q01DX009 (ip), vehicle: saline with Tween-80) was 104 % of control and the T/C (dose: 100.0 mg/kg/injection, schedule: Q01DX009 (ip), vehicle: saline with Tween-80) was 117 % of control.

For `CC(C)c1oc(=O)cc2c1C(O)C1OC(=O)C3(C)C(O)C4OC4C2(C)C13` (centres undefined) (tested in a mixture with another compound), the T/C (dose: 15.0 mg/kg/injection, schedule: Q01DX009 (ip), vehicle: saline with Tween-80) was 113 % of control and the T/C (dose: 60.0 mg/kg/injection, schedule: Q01DX009 (ip), vehicle: saline with Tween-80) was 123 % of control.

`CCSC(C(OC(C)=O)C(OC(C)=O)C(OC(C)=O)C(COC(C)=O)OC(C)=O)n1cnc2c(=S)nc[nH]c21` (centres undefined) was tested, and the T/C [1] was 107 % of control and the T/C [3] was 87 % of control.

With `COc1ccc(C(C)c2cc3c(cc2OCCO)OCO3)cc1O` (centres undefined) the T/C (dose: 50.0 mg/kg/injection, schedule: Q01DX005 (ip), vehicle: distilled water + Tween-80) was 97 % of control, the T/C (dose: 100.0 mg/kg/injection, schedule: Q01DX005 (ip), vehicle: distilled water + Tween-80) was 99 % of control and the T/C (dose: 200.0 mg/kg/injection, schedule: Q01DX005 (ip), vehicle: distilled water + Tween-80) was 98 % of control.

With `N#CC1CNC(N)NC1N` (centres undefined) the T/C (dose: 60.0 mg/kg/injection, schedule: Q01DX005 (ip), vehicle: Klucel (hydroxypropylcellulose) (HPC)) was 99 % of control, the T/C (dose: 120.0 mg/kg/injection, schedule: Q01DX005 (ip), vehicle: Klucel (hydroxypropylcellulose) (HPC)) was 91 % of control and the T/C (dose: 240.0 mg/kg/injection, schedule: Q01DX005 (ip), vehicle: Klucel (hydroxypropylcellulose) (HPC)) was 90 % of control.

`CCCCC(NC(=O)OCc1ccccc1)C(=O)NCC(=O)OC` (centres undefined) (Cbz-[ξNle]-Gly-OMe) was tested, and the T/C [1] was 99 % of control, the T/C [2] was 100 % of control and the T/C [3] was 99 % of control.

From PubChem BioAssay AID330 (DTP/NCI, 2004)
